Target: Potassium channel subfamily K member 9 (Homo sapiens, UniProt Q9NPC2)
Assay: Inhibition of Recombinant TASK-1 and TASK-3 In Vitro: The investigations on the inhibition of the recombinant TASK-1 and TASK-3 channels were conducted using stably transfected CHO cells. The compounds according to the invention were tested in this case by application of 40 mM potassium chloride in the presence of a voltage-sensitive dye according to the method described in detail in the following references [Whiteaker et al., Validation of FLIPR membrane potential dye for high-throughput screening of potassium channel modulators, J. Biomol. Screen. 6 (5), 305-312 (2001); Molecular Devices FLIPR Application Note: Measuring membrane potential using the FLIPR® membrane potential assay kit on Fluorometric Imaging Plate Reader (FLIPR®) systems, http://www.moleculardevices.com/reagents-supplies/assay-kits/ion-channels/flipr-membrane-potential-assay-kits]. The activity of the test substances was determined as their ability to inhibit a depolarization induced in the recombinant cells by 40 mM potassium chloride. The concentration which can block half of this depolarization is referred to as IC50.
Assay type: cell-based

Chain of Potassium channel subfamily K member 9 (Q9NPC2 whole entry): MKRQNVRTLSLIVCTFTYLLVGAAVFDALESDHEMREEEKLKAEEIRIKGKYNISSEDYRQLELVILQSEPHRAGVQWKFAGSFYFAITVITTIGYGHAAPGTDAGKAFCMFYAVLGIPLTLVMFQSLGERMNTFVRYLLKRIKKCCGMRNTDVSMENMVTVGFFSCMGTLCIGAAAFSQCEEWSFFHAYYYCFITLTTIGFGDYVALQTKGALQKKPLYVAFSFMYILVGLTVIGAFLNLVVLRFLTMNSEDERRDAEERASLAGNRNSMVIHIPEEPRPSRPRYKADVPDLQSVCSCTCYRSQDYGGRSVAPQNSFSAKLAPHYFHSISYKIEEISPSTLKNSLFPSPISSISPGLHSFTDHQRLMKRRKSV

Q: How did the IC50 turn out when `CNc1cccc(C(=O)N2C3CCC2CN(Cc2c(-c4ccc(Cl)cc4)nc4ncccn24)C3)n1` was run?
A: Its IC50 is 1500 nM.
